# Literature values in patent publication EP4389150A1, “CONJUGATE COMPOUNDS AND THEIR USE IN CANCER TREATMENT AND DIAGNOSIS” (Technische Universität München, priority 2022, dated 2024).
# Conditions: Wilson et al. 2019; cited from earlier work
smiles,measurement,value
O=C(c1cc(Cc2n[nH]c(=O)c3ccccc23)ccc1[18F])N1CCN(C(=O)C2CC2)CC1 [^18F-Olaparib],typical biodistribution of PARPi,low tumor uptake and high gut uptake
